Laboratory results published in patent publication US20030092644A1, “Treatment of viral infections using levovirin” (priority 2002, published 2003).
Read-outs that look alike come from different tables or passages of the source.

Experiments:
IL-2 = experiment: SEB-activated T cell cytokine ELISA, IL-2; type: cell-based, human
IFN-γ = experiment: SEB-activated T cell cytokine ELISA, IFN-γ; type: cell-based, human
TNF-α = experiment: SEB-activated T cell cytokine ELISA, TNF-α; type: cell-based, human
Hepatitis B (HBV) = experiment: microbe, parasite or virus in culture; type: cell-based; details: read-out: Dir. Antiviral activity (EC50) HBV
Influenza (INFL) A = experiment: microbe, parasite or virus in culture; type: cell-based; details: read-out: Dir. Antiviral activity (EC50) INFL. A
Influenza (INFL) B = experiment: Direct antiviral activity, Influenza B; type: cell-based; details: Influenza B virus; read-out: Dir. Antiviral activity (EC50) INFL. B
Description: (§1) In vitro testing for direct antiviral activity of Levovirin™ and Ribavirin against influenza A and B, parainfluenza 1 and 2, and respiratory syncytial virus were performed as described in Huffman, J. H. et al. Antiviral Chem. and Chemother. 1997, 8: 75-83 and Barnard, D. L. et al. Antiviral Chem. and Chemother 1997, 8: 223-233. Anti-human immunodeficiency virus activity was assessed by the National Cancer Institute using a procedure designed to detect agents acting at any stage of the virus reproductive cycle [Weislow, O. W. et al., J. Natl. Cancer Inst. 1989, 81: 577-5861. Anti-hepatitis B (HBV) activity was monitored by using an assay as described by Marion et al., Hepatology 1987, 7: 724-731. Anti-HIV activity and cytotoxicity for Ribavirin was determined from previous data [McCormick, J. B., Lancet, 1998, II: 1367-1369.

Parainfluenza (PARA) 1 = experiment: organism not typed; type: cell-based, Parainfluenza 1; details: read-out: Dir. Antiviral activity (EC50) PARA 1
Parainfluenza (PARA) 3 = experiment: organism not typed; type: cell-based, Parainfluenza 3; details: read-out: Dir. Antiviral activity (EC50) PARA 3
[1] = test system: respiratory syncytial virus (RSV); experiment: microbe, parasite or virus in culture; type: cell-based; details: human respiratory syncytial virus, read-out: Dir. Antiviral activity (EC50) RSV
[2] = Cytotoxicity in Influenza A assay; type: cell-based; details: cells infected with Influenza A; read-out: Cytotoxicity (CC50) INFL. A
Description: as §1

[3] = Cytotoxicity in Influenza B assay; type: cell-based; details: cells infected with Influenza B; read-out: Cytotoxicity (CC50) INFL. B
Description: as §1

[4] = test system: Concanavalin A induced hepatitis; type: in vivo; details: BALB/c mice, single i.p. dose 20 μg (1 mg/kg) 1 hr before i.v. 0.3 mg Con A; serum after 24 hr; PBS control about 1900 U/ml
rats = details: rat, in vivo, po, 180 mg/kg
[5] = test system: human immunodeficiency virus (HIV); details: read-out: Dir. Antiviral activity (EC50) HIV; cited from earlier work
cells infected with HIV [6] = details: cited from earlier work
[7] = test system: human immunodeficiency virus (HIV); experiment: microbe, parasite or virus in culture; type: cell-based; details: Human immunodeficiency virus 1, read-out: Dir. Antiviral activity (EC50) HIV
[8] = test system: cells infected with Influenza A; experiment: Cytotoxicity in Influenza A assay; type: cell-based; details: read-out: Cytotoxicity (CC50) INFL. A
Description: as §1

[9] = test system: cells infected with Influenza B; experiment: Cytotoxicity in Influenza B assay; type: cell-based; details: read-out: Cytotoxicity (CC50) INFL. B
Description: as §1

cells infected with HIV [10] = test system: cells infected with HIV
[11] = test system: cells infected with Parainfluenza 1
[12] = test system: cells infected with Parainfluenza 3
[13] = SEB stimulated T cells, 48 hrs, 0-10 μM compound, +/- standard deviation, 100% = no effect

NC(=O)c1ncn([C@@H]2O[C@H](CO)[C@@H](O)[C@H]2O)n1 [Ribavirin]
IL-2, mean percentage of activated control (IL-2; [13]): 143 ±18%
IFN-γ, mean percentage of activated control (IFN-γ; [13]): 131 ± 6%
TNF-α, mean percentage of activated control (TNF-α; [13]): 124 ± 4%
EC50 (Hepatitis B (HBV)): > 100 µM
EC50 (Influenza (INFL) A): 6.1 µM
EC50 (Influenza (INFL) B): 1.9 µM
EC50 (Parainfluenza (PARA) 1): 40 µM
EC50 (Parainfluenza (PARA) 3): 4 µM
EC50 [1]: 5 µM
CC50 [2]: 56 µM
CC50 [3]: > 100 µM
Con A induced serum ALT level [4]: 969 U/ml
Clinical pathology (hemolytic anemia, leukopenia) (rats): produced significant hemolytic anemia and leukopenia
EC50 [5]: 40 µM
CC50 (cells infected with HIV [6]): > 40 µM

NC(=O)c1ncn([C@H]2O[C@@H](CO)[C@H](O)[C@@H]2O)n1 [Levovirin™, 1-(β-L-ribofuranosyl)-1,2,4-triazole-3-carboxamide]
IL-2, mean percentage of activated control (IL-2): 131 ± 12%
IFN-γ, mean percentage of activated control (IFN-γ): 122 ± 3%
TNF-α, mean percentage of activated control (TNF-α): 144 ± 7%
EC50 (Hepatitis B (HBV)): > 100 µM
EC50 [7]: > 600 µM
EC50 (Influenza (INFL) A): > 200 µM
EC50 (Parainfluenza (PARA) 1): > 1000 µM
EC50 (Parainfluenza (PARA) 3): > 1000 µM
EC50 [1]: > 1000 µM
CC50 [8]: > 200 µM
CC50 [9]: > 200 µM
CC50 (cells infected with HIV [10]): > 600 µM
CC50 [11]: > 1000 µM
CC50 [12]: > 1000 µM
Clinical pathology (hemolytic anemia, leukopenia) (rats): did not produce any observable clinical pathology
